Laboratory results: patent US20080249080A1, “Benzodiazepine Derivatives and Uses Thereof on Medical Field” (priority 2005, published 2008)

Assays:
[1] = test system: HL-60 and Jurkat cells; details: laboratory experiments; cited from earlier work
[2] = test system: NPA papillary thyroid carcinoma cell line; assay: DNA fragmentation, NPA; format: cell-based, human; details: 10 μM, 24 and 48 hours
Experimental: (§1) The authors also have tested compounds according to the invention, in particular RS-678 and RS-779 compounds, also on OVCAR3 ovary carcinoma cell lines, ARO anaplastic thyroid and NPA papillary thyroid human carcinoma cell lines.
(§2) Subsequently, the same cell lines, except OVCAR3, were tested with fourteen new synthetic compounds at 10 μM concentration for 24 and 48 hours: eleven induced the expected cellular death.

[3] = test system: K562 cell line; assay: DNA fragmentation, K562 leukemic cell line; format: cell-based, human; details: 5, 10, 15 μM, 8, 16 and 24 hours, FIG. 1 A, B
[4] = test system: K562 cell line; assay: DNA fragmentation, K562 leukemic cell line; format: cell-based, human; details: 10 μM, 24 and 48 hours, FIGS. 18, 20, 21
Experimental: as §2

[5] = test system: ARO anaplastic thyroid carcinoma cell line; assay: DNA fragmentation, ARO; format: cell-based, human; details: 10 μM, 24 and 48 hours
Experimental: as §1, §2

[6] = test system: mixed lymphocytic cultures from marrow or peripheral blood of patients suffering from chronic myelogenous leukemia; assay: DNA fragmentation, mixed lymphocytic cultures of CML patients; format: cell-based, human; details: samples from patients (some Glivec resistant); 10 μM; 24, 48 and 72 hours; FIGS. 12-14
[7] = test system: tested cell lines (K562, ARO, NPA); assay: Relative cellular death in the tested cell lines; format: cell-based, human
Experimental: as §2

[8] = test system: ARO cell line; assay: Percentage of dead cells, ARO; format: cell-based, human; details: after 24 hours
[9] = test system: K562 cell line; assay: Percentage of apoptosis, K562; format: cell-based, human; details: after 24 hours
[10] = test system: NPA cell line; assay: Percentage of apoptosis, NPA; format: cell-based, human; details: after 24 hours
[11] = test system: RET/C634R and RET/M918T mutants; details: cited from earlier work
[12] = test system: RET/E768D, RET/L790F, RET/Y791F, RET/A883F and RET/S891A mutants; details: cited from earlier work
[13] = test system: RET/V804L and RET/V804M mutants; details: cited from earlier work

SMILES | DNA fragmentation [2] | DNA fragmentation [4] | DNA fragmentation [5] | also measured
COc1cccc2c1C(=O)c1c(O)c3c(c(O)c1C2=O)C[C@@](O)(C(C)=O)C[C@@H]3O[C@H]1C[C@H](N)[C@H](O)[C@H](C)O1 [daunoribucin] |  |  |  | induction of apoptosis [1]: able to induce apoptosis
COc1cc([C@@H]2c3cc4c(cc3[C@@H](O[C@@H]3O[C@@H]5CO[C@@H](C)O[C@H]5[C@H](O)[C@H]3O)[C@H]3COC(=O)[C@H]23)OCO4)cc(OC)c1O [etoposide] |  |  |  | induction of apoptosis [1]: able to induce apoptosis
O=C(O)C1Nc2ccccc2S(=O)(=O)n2cccc21 (stereo not drawn) [RS-735, 10,11-dihydropyrrolo[1,2-b][1,2,5]benzothiadiazepine-11-carboxylic 5,5-dioxide acid] | not present | not present | not present | apoptosis / DNA fragmentation [3]: not able to produce the DNA fragmentation
CCOC(=O)C1c2cccn2S(=O)(=O)c2ccccc2N1C(=O)c1cccc2ccccc12 (stereo not drawn) [RS-2631, ethyl 10,11-dihydro-10-(1-naphtoyl)pyrrolo[1,2-b][1,2,5]benzo-thiadiazepine-11-carboxylate 5,5-dioxide] | DNA fragmentation | DNA fragmentation | DNA fragmentation | 
CCOC(=O)CC1Nc2ccccc2S(=O)(=O)n2cccc21 (stereo not drawn) [RS-752, ethyl 10,11-dihydropyrrolo[1,2-b][1,2,5]benzothiadiazepine-11-acetate 5,5-dioxide] | DNA fragmentation | DNA fragmentation | DNA fragmentation | DNA fragmentation [6]: DNA fragmentation
CCOC(=O)C1c2cccn2S(=O)(=O)c2ccccc2N1C(=O)c1ccc(F)cc1 (stereo not drawn) [RS-2632, ethyl 10,11-dihydro-10-(4-fluorobenzoyl)pyrrolo[1,2-b][1,2,5]benzothiadiazepine-11-carboxylate 5,5-dioxide] | DNA fragmentation | DNA fragmentation | DNA fragmentation | 
O=C(O)CC1Nc2ccccc2S(=O)(=O)n2cccc21 (stereo not drawn) [RS-761, 10,11-dihydropyrrolo[1,2-b][1,2,5]benzothiadiazepine-11-acetic 5,5-dioxide acid] | not present | not present | not present | 
CCOC(=O)CC1c2cccn2S(=O)(=O)c2ccccc2N1C(=O)c1ccccc1 (stereo not drawn) [RS-2645, ethyl 10,11-dihydro-10-(benzoyl)pyrrolo[1,2-b][1,2,5]benzo-thiadiazepine-11-acetate 5,5-dioxide] | DNA fragmentation | DNA fragmentation | DNA fragmentation | cellular death relative to other compounds [7]: greater cellular death
CCOC(=O)CC1c2cccn2S(=O)(=O)c2ccccc2N1C(=O)c1ccc(F)cc1 (stereo not drawn) [RS-2652, ethyl 10,11-dihydro-10-(4-fluorobenzoyl)pyrrolo[1,2-b][1,2,5]benzothiadiazepine-11-acetate 5,5-dioxide] | DNA fragmentation | DNA fragmentation | DNA fragmentation | 
COC(=O)CC1c2cccn2N(C)c2ccccc2N1C(=O)c1ccc(OC)cc1 (stereo not drawn) [RS-421, methyl 10,11-dihydro-5-methyl-10-(4-metoxybenzoyl)-5H-pyrrolo[1,2-b][1,2,5]-benzotriazepine-11-acetate] | DNA fragmentation | DNA fragmentation | DNA fragmentation | 
O=C(OC(c1ccc(Cl)cc1)C1Nc2ccccc2S(=O)(=O)n2cccc21)c1ccccc1 (stereo not drawn) [RS-786, 11-(4-Chlorophenybenzoyloxymethylene)10,11-dihydro pyrrolo[1,2-b][1,2,5]benzothiadiazepine 5,5-dioxide] | not present | not present | not present | 
CCOC(=O)CC1c2cccn2S(=O)(=O)c2ccccc2N1C(=O)c1cccc2ccccc12 (stereo not drawn) [RS-2661, ethyl 10,11-dihydro-10-(1-naphtoyl)pyrrolo[1,2-b][1,2,5]benzothiadiazepine-11-acetate 5,5-dioxide] | DNA fragmentation | DNA fragmentation | DNA fragmentation | 
CCOC(=O)C1c2cccn2S(=O)(=O)c2ccccc2N1C(=O)c1ccccc1 (stereo not drawn) [RS-2629, ethyl 10,11-dihydro-10-(benzoyl)pyrrolo[1,2-b][1,2,5]benzo-thiadiazepine-11-carboxylate 5,5-dioxide] | DNA fragmentation | DNA fragmentation | DNA fragmentation | percentage of dead cells [8]: approximately 60%; percentage of apoptosis [9]: 85%; percentage of apoptosis [10]: 80%; cellular death relative to other compounds [7]: greater cellular death
COC(=O)CC1c2cccn2N(C)c2ccccc2N1C(=O)c1ccccc1 (stereo not drawn) [RS-337, methyl 10,11-dihydro-5-methyl-10-benzoyl-5H-pyrrolo[1,2-b][1,2,5]-benzotriazepine-11-acetate] | DNA fragmentation | DNA fragmentation | DNA fragmentation | 
Cc1ccc(-c2nn(C(C)(C)C)c3ncnc(N)c23)cc1 [PP1] |  |  |  | block of the transforming activity [11]: able to block; inhibition of in vivo self-phosphorylation [12]: inhibited effectively; sensitivity to the action of inhibitors [13]: less sensitive
O=S1(=O)c2ccccc2NC(CO)c2cccn21 (stereo not drawn) [RS-750, 10,11-dihydropyrrolo [1,2-b][1,2,5]benzothiadiazepine-11-methanol 5,5-dioxide] | not present | not present | not present | 
CCOC(=O)CC1c2cccn2S(=O)(=O)c2ccccc2N1C(=O)c1ccc(Cl)cc1 (stereo not drawn) [RS-2660, ethyl 10,11-dihydro-10-(4-chlorobenzoyl)pyrrolo[1,2-b][1,2,5]benzothiadiazepine-11-acetate 5,5-dioxide] | DNA fragmentation | DNA fragmentation | DNA fragmentation | 
CC[C@@]1(O)C(=O)OCc2c1cc1n(c2=O)Cc2cc3ccccc3nc2-1 [camptothecin] |  |  |  | induction of apoptosis [1]: able to induce apoptosis
COc1cccc2c1C(=O)c1c(O)c3c(c(O)c1C2=O)C[C@@](O)(C(=O)CO)C[C@@H]3O[C@H]1C[C@H](N)[C@H](O)[C@H](C)O1 [doxorubicin] |  |  |  | induction of apoptosis [1]: able to induce apoptosis
CCOC(=O)C1c2cccn2S(=O)(=O)c2ccccc2N1C(=O)c1ccc(Cl)cc1 (stereo not drawn) [RS-2630, ethyl 10,11-dihydro-10-(4-chlorobenzoyl)pyrrolo[1,2-b][1,2,5]benzothiadiazepine-11-carboxylate 5,5-dioxide] | DNA fragmentation | DNA fragmentation | DNA fragmentation | percentage of dead cells [8]: approximately 60%; percentage of apoptosis [9]: 85%; percentage of apoptosis [10]: 80%; cellular death relative to other compounds [7]: greater cellular death
